According to PMC10635799, “Analogs of FTY720 inhibit TRPM7 but not S1PRs and exert multimodal anti-inflammatory effects” (The Journal of General Physiology, 2023):

Columns and labels:
[1] = target: T1, mouse TRPM7 (Mus musculus, UniProt Q923J1); test: Whole-cell patch clamp of TRPM7 current (IM7) in HEK 293T cells overexpressing mouse TRPM7; type: cell-based
T1 construct: expressed in transfected cells; host or cells: HEK 293T cells (CRL-3216; ATCC), transient transfection with jetOPTIMUS, co-transfected eGFP as a separate plasmid
T1 sequence (Q923J1 whole entry): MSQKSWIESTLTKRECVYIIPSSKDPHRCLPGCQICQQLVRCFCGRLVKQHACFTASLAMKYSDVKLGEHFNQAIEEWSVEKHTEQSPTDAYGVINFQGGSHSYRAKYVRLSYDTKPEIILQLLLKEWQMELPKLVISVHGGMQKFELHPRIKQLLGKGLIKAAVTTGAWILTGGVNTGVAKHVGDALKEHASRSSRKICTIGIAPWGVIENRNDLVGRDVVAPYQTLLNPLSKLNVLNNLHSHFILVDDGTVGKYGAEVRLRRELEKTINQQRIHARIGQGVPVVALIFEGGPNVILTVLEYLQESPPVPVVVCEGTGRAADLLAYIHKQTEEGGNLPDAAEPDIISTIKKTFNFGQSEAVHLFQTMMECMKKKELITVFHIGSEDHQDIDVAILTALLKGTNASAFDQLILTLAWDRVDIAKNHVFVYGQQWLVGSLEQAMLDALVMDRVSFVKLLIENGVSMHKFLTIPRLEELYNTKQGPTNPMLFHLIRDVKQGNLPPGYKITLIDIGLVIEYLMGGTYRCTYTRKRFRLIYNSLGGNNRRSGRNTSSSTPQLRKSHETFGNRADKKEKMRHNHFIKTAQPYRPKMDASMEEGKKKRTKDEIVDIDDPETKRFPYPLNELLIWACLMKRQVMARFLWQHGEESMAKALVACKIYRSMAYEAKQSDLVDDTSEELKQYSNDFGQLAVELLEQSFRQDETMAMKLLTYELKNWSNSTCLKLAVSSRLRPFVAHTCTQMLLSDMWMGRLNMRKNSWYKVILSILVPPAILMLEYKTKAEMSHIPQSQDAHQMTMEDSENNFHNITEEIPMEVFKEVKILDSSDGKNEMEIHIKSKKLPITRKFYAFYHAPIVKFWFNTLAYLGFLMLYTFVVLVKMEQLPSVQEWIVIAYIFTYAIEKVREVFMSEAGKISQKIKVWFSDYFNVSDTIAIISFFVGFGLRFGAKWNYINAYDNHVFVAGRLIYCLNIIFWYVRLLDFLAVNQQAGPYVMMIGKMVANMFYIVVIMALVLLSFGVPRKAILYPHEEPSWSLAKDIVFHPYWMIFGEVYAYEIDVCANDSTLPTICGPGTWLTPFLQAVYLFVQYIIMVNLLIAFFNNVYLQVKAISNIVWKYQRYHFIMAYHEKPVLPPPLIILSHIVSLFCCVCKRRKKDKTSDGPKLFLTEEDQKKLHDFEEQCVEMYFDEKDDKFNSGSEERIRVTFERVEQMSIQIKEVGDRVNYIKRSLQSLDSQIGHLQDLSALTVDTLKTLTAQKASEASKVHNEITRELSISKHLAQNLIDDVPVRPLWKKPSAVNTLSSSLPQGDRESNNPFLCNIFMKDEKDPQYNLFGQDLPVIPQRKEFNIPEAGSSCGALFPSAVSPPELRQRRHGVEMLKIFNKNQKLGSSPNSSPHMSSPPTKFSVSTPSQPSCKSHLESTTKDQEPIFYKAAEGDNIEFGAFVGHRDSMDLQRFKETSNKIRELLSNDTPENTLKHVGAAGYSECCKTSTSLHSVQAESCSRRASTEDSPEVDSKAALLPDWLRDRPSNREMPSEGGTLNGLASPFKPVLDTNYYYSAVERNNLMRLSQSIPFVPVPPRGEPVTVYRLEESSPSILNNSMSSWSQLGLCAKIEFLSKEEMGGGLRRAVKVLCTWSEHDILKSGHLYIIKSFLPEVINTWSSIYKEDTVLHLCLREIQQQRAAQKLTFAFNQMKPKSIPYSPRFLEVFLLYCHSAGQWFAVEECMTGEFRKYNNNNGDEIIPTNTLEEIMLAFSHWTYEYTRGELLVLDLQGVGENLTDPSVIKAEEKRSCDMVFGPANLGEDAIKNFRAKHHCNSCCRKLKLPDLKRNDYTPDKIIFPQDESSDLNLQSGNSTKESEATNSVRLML
Protocol: To overexpress TRPM7, HEK 293T cells were plated at a density of 500,000 cells per well (day 0), transfected at 80–90% confluency (day 1), and were patched 24–36 h after transfection (day 2). TRPM7 overexpression was performed using WT mouse TRPM7 (2.5 µg plasmid DNA; [Desai et al., 2012]) and jetOPTIMUS DNA Transfection Reagent (101000006; Polyplus). To enhance the selection rate of TRPM7-overexpressing cells, eGFP (#22152; Addgene) was included at a 1:10 dilution (0.25 µg) and only GFP-positive cells were patched.
Whole-cell patch clamp electrophysiology was performed as described previously ([Schappe et al., 2022]). Briefly, the external solution contained (in mM) 140 Na-methanesulfonate, 5 Cs-gluconate, 2.5 CaCl2, and 10 HEPES, pH 7.4 (adjusted with NaOH), at an osmolality of 280–290 mOsm/kg. The internal pipette solution contained (in mM) 115 Cs-gluconate, 3 NaCl, 0.75 CaCl2, 10 HEPES, 10 HEDTA, 1.8 Cs4-BAPTA, and 2 Na2ATP, pH 7.3 (adjusted with CsOH), at an osmolality of 273 mOsm/kg. Intracellular free [Ca^2+] was estimated to be ∼100 nM using the online WEBMAXC standard calculator at https://somapp.ucdmc.ucdavis.edu/pharmacology/bers/maxchelator/webmaxc/webmaxcS.htm ([Bers et al., 2010]). Recordings were captured in pCLAMP 9 (Molecular Devices) using a 400-ms ramp protocol from −100 to +100 mV and a holding potential of 0 mV. Sampling was performed at 10 kHz with a 5 kHz low-pass band filter using an Axopatch 200B amplifier (Molecular Devices). All electrophysiology experiments were conducted at RT (∼23°C). […] Similarly, the minimum current for each inhibitor dose is taken as the stable minimum current observed after the drug has had time to exert an effect and after the flow-driven transient increase has subsided.
Data were analyzed using Microsoft Excel, Prism 9.5 (GraphPad Software), and Origin Pro 7.5 (OriginLab). Chemical structures were created using ChemDraw Professional 20.1.1 (PerkinElmer). Electrophysiology traces were plotted using Origin Pro 7.5, and the remaining data were plotted and statistically tested using Prism. Outliers were determined using the robust regression and outlier removal (ROUT) function within Prism. IC50 values were determined by plotting the percentage of maximum current observed as a function of applied drug concentration. A non-linear regression was fit using a standard Hill slope of −1.0 and the model: Y=100/[1+([Inhibitor]/IC50)]. Where appropriate, data are presented as individual values; otherwise the sample sizes and precision measures are indicated in the figure legends. P values of <0.05 were considered statistically significant.

[2] = tested on: alveolar macrophages; test: LPS-induced cytokine expression in primary alveolar macrophages (qRT-PCR); type: cell-based, mouse; settings: 10 µM pretreatment, LPS 1 µg/ml for 3 h
Protocol: Alveolar macrophages were isolated and cultured from wildtype (WT) C57BL/6 mice (Strain #000664; Jackson Laboratory) using an established protocol ([Nayak et al., 2018]). […] Using a 5-ml syringe filled with 3 ml of bronchoalveolar lavage buffer (“BAL buffer”: Ca^2+- and Mg^2+-free PBS + 1 mM EDTA), the lungs were first filled with ∼2 ml of BAL buffer, then flushed five times in a cycle involving the installation and removal of 1 ml of buffer. The collected BAL fluid was pooled and the cyclical perfusion step was repeated with fresh buffer until a total of ∼10 ml of BAL fluid was collected. BAL fluid with gross evidence of blood contamination was discarded. A pellet was obtained through centrifugation at 500 × g for 5 min, and contaminating red blood cells were lysed by resuspending cells for 5 min in 5 ml of ice-cold ACK Lysis buffer (A1049201; Gibco). The cells were then pelleted at 500 × g for 5 min, resuspended in alveolar macrophage culture media (DMEM supplemented with 10% FBS, 20% L-929 culture supernatant, 1 mM sodium pyruvate, 10 mM HEPES, and 1× penicillin/streptomycin), and plated onto untreated tissue culture dishes for 24 h. The media was exchanged prior to use to remove unattached cells.
RAW 264.7 macrophages or BMDMs were seeded at a density of 250,000 cells per well into a 12-well tissue culture plate in 1 ml of media and left to incubate overnight. The indicated drug or vehicle control was added to each well, and the plate was agitated and left to incubate for 10 min. […] Cells were washed with PBS and then RNA isolation was performed using RNeasy Plus Micro Kit (74134; Qiagen). cDNA was produced using GoScript Reverse Transcriptase (A5004; Promega) and a quantitative PCR was performed using SensiFast SYBR (98020; Bioline) and Bio-Rad CFX Connect thermocycler. […] Fold-changes are all reported relative to untreated controls for each experiment and were calculated using the ∆∆Ct method, with β2-microglobulin used as the housekeeping gene for each sample. […]

[3] = tested on: LPS-induced endotoxemia in mice; test: Lethal dose (LD50) LPS mouse model; type: in vivo; settings: LD50 LPS + 30 mg/kg
[4] = tested on: BMDMs; test: LPS-induced inflammation assay in WT and TRPM7 KO BMDMs (qRT-PCR); type: cell-based, mice
Protocol: All cells were cultured at 37°C with 5% CO2. HEK 293T cells (CRL-3216; ATCC), HeLa cells (CCL-2; ATCC), RAW 264.7 macrophages (TIB-71; ATCC), and BV-2 microglial cells (ABC-TC212S; AcceGen Biotech) were cultured in DMEM (11995065; Gibco) with 10% fetal bovine serum (FBS; Avantor Seradigm Premium Grade Fetal Bovine Serum 97068-085). FBS was heat-inactivated prior to use at 56°C for 30 min. BMDMs were isolated and cultured as previously described ([Schappe et al., 2018]) and differentiated into mature macrophages over 7 d through culture in BMDM media (RPMI 1640, 10% FBS, and 20% L-929 culture supernatant; Gibco).
RAW 264.7 macrophages or BMDMs were seeded at a density of 250,000 cells per well into a 12-well tissue culture plate in 1 ml of media and left to incubate overnight. The indicated drug or vehicle control was added to each well, and the plate was agitated and left to incubate for 10 min. The cells were then treated with LPS (1 µg/ml) or an equivalent volume of PBS, agitated, and left to incubate for 3 h. Cells were washed with PBS and then RNA isolation was performed using RNeasy Plus Micro Kit (74134; Qiagen). cDNA was produced using GoScript Reverse Transcriptase (A5004; Promega) and a quantitative PCR was performed using SensiFast SYBR (98020; Bioline) and Bio-Rad CFX Connect thermocycler. Each datum represents an individual, biological replicate that is the mean of duplicate technical replicates. Fold-changes are all reported relative to untreated controls for each experiment and were calculated using the ∆∆Ct method, with β2-microglobulin used as the housekeeping gene for each sample. The experiment was performed similarly with BV-2 microglia and alveolar macrophages, except that cells were plated at a density of 100,000 cells per well into a 24-well tissue culture plate with 1 ml of media per well.

## CCCCCCCCc1ccc([C@@H]2CC[C@@](N)(CO)C2)cc1 [VPC01091.4, ((1S,3R)-1-amino-3-(4-octylphenyl)cyclopentyl)methanol]
[1]; 5 µM
  Effect on whole-cell TRPM7 current (IM7): current inhibition
[1]; peak current at +100 mV, HEK 293T overexpressing mouse TRPM7, Hill slope -1.0, read-out: IC50 for inhibition of TRPM7 current (IM7)
  IC50: 665 nM
[2]
  LPS-induced CCL4 expression: significantly suppressed
  LPS-induced IL-1β expression: significantly suppressed
  LPS-induced TNFα expression: significantly suppressed
[3]; 132 h, LPS-only 50%, control 100%, P = 0.127
  Survival rate: 83.33%
[3]; vs LPS only, 132 h
  Clinical scores (symptoms): significantly reduced at a number of timepoints
[3]; vs LPS only, after first 48 h
  Weight change from baseline: recovering at a higher nadir and at an earlier timepoint
[4]; 10 µM VPC4, 10 µM AAL-149, 5 µM FTY720, 30 μM NS8593
  LPS-induced IL-1β expression in TRPM7 KO BMDMs: able to suppress
[4]; 10 µM, effect on top of genetic deletion
  LPS-induced IL-6 expression in Trpm7 KO BMDMs: additive effect
